Data as given in ChEMBL document CHEMBL5131517 (ACS Med Chem Lett, 2022).

Columns and labels:
[1] = target: T1, 5-hydroxytryptamine receptor 1A (Homo sapiens, UniProt P08908); assay: Binding affinity to 5HT1A receptor (unknown origin) assessed as inhibition constant
T1 sequence (P08908 whole entry): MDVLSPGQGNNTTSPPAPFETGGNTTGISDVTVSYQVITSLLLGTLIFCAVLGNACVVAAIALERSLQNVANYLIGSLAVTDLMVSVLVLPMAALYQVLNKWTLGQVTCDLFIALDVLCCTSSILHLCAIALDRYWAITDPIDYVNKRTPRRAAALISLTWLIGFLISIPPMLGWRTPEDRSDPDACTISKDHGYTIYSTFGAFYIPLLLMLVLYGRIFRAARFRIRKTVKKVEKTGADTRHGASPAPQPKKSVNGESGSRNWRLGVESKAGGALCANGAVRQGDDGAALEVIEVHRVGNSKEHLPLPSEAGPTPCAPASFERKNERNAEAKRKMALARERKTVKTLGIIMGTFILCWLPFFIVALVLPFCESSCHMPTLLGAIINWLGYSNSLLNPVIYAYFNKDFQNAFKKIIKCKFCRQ

[2] = target: Kappa-type opioid receptor (Homo sapiens) (UniProt P41145); assay: Inhibition of KOR receptor (unknown origin); settings: concentration not given here
[3] = target: Histamine H4 receptor (Homo sapiens) (UniProt Q9H3N8); assay: Inhibition of H4 receptor (unknown origin); settings: concentration not given here
[4] = target: Sodium-dependent dopamine transporter (Homo sapiens) (UniProt Q01959); assay: Inhibition of DAT receptor (unknown origin); settings: concentration not given here
[5] = target: T2, 5-hydroxytryptamine receptor 2B (Homo sapiens, UniProt P41595); assay: Agonist activity at human 5HT2B receptor stably expressed in Flp-In-T-REx-293 cells assessed as maximal Gq-mediated calcium flux by Fluo-4 direct dye based FLIPR Tetra assay relative to control; format: functional, cell-based; settings: filed as agonist
[6] = target: Histamine H1 receptor (Homo sapiens) (UniProt P35367); assay: Inhibition of H1 receptor (unknown origin); settings: concentration not given here
[7] = target: T2, 5-hydroxytryptamine receptor 2B; assay: Binding affinity to 5HT2B receptor (unknown origin) assessed as inhibition constant
[8] = target: Sodium-dependent noradrenaline transporter (Homo sapiens) (UniProt P23975); assay: Inhibition of NET receptor (unknown origin); settings: concentration not given here
[9] = target: T3, 5-hydroxytryptamine receptor 2A (Homo sapiens, UniProt P28223); assay: Agonist activity at human 5HT2A receptor stably expressed in Flp-In-T-REx-293 cells assessed as increase in Gq-mediated calcium flux by Fluo-4 direct dye based FLIPR Tetra assay; format: functional, cell-based
[10] = target: D(4) dopamine receptor (Homo sapiens) (UniProt P21917); assay: Inhibition of D4 receptor (unknown origin); settings: concentration not given here
[11] = target: T2, 5-hydroxytryptamine receptor 2B; assay: Agonist activity at human 5HT2B receptor stably expressed in Flp-In-T-REx-293 cells assessed as increase in Gq-mediated calcium flux by Fluo-4 direct dye based FLIPR Tetra assay; format: functional, cell-based
[12] = target: T4, Muscarinic acetylcholine receptor M1 (Homo sapiens) (UniProt P11229); assay: Inhibition of M1 receptor (unknown origin); settings: concentration not given here
T4 sequence (whole entry): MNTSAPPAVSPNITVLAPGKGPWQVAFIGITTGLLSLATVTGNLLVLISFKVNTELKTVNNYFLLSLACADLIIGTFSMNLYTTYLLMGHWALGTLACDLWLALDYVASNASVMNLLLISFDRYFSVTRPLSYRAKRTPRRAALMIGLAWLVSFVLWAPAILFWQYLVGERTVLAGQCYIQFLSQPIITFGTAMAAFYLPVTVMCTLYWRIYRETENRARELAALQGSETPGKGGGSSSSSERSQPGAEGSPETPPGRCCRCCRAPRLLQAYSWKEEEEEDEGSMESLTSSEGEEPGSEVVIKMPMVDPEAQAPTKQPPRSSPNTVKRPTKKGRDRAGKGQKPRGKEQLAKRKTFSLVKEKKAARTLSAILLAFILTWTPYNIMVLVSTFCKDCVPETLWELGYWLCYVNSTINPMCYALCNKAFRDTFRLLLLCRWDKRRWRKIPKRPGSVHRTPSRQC

[13] = target: T3, 5-hydroxytryptamine receptor 2A; assay: Binding affinity to 5HT2A receptor (unknown origin) assessed as inhibition constant
[14] = target: Delta-type opioid receptor (Homo sapiens) (UniProt P41143); assay: Inhibition of DOR receptor (unknown origin); settings: concentration not given here
[15] = target: 5-hydroxytryptamine receptor 1B (Homo sapiens, UniProt P28222); assay: Binding affinity to 5HT1B receptor (unknown origin) assessed as inhibition constant
[16] = target: Beta-3 adrenergic receptor (Homo sapiens) (UniProt P13945); assay: Inhibition of beta 3 receptor (unknown origin); settings: concentration not given here
[17] = target: T5, Alpha-2A adrenergic receptor (Homo sapiens) (UniProt P08913); assay: Inhibition of alpha2A receptor (unknown origin); settings: concentration not given here
T5 sequence (whole entry): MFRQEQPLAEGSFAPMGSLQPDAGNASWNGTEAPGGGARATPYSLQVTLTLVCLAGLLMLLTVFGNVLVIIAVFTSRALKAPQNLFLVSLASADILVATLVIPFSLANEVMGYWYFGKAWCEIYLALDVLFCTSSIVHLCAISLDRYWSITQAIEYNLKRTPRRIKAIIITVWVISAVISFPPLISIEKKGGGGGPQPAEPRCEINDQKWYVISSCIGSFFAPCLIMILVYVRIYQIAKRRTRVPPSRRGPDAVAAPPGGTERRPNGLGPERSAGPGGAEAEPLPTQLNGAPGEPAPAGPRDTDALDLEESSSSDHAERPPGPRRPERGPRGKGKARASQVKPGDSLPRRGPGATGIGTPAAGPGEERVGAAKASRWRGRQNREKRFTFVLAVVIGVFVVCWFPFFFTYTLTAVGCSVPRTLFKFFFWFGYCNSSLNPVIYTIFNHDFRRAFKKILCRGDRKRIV

[18] = target: T6, Alpha-1B adrenergic receptor (Homo sapiens) (UniProt P35368); assay: Inhibition of alpha1B receptor (unknown origin); settings: concentration not given here
T6 sequence (whole entry): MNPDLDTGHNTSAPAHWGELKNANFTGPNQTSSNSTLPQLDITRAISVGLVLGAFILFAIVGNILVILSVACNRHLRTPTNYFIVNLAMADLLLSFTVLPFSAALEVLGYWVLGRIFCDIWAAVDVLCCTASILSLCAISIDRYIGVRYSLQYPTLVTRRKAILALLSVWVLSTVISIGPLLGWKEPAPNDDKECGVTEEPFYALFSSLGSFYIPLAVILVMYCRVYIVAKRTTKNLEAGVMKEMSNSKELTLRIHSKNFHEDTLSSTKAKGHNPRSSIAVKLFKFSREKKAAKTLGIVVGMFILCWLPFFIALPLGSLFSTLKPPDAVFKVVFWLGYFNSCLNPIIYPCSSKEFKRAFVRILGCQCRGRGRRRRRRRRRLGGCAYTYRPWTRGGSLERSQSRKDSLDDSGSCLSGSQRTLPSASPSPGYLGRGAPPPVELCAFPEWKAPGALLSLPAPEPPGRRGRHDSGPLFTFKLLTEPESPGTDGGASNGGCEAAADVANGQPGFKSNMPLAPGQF

[19] = target: Mu-type opioid receptor (Homo sapiens) (UniProt P35372); assay: Inhibition of MOR receptor (unknown origin); settings: concentration not given here
[20] = target: D(4) dopamine receptor (Homo sapiens, UniProt P21917); assay: Binding affinity to D4 receptor (unknown origin) assessed as inhibition constant

Beta-3 adrenergic receptor (Homo sapiens), sequence (P13945 whole entry, looked up): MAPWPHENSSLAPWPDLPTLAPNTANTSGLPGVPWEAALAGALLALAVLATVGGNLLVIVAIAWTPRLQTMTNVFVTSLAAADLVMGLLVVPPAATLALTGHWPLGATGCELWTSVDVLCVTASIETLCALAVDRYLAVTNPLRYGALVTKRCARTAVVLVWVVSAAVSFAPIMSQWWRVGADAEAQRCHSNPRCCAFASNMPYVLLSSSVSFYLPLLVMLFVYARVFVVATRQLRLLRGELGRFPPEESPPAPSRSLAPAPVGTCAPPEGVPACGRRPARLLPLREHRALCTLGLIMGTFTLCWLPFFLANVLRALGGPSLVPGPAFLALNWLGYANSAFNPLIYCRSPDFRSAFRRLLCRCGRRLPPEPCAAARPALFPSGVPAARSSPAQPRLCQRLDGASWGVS
Sodium-dependent noradrenaline transporter (Homo sapiens), sequence (P23975 whole entry): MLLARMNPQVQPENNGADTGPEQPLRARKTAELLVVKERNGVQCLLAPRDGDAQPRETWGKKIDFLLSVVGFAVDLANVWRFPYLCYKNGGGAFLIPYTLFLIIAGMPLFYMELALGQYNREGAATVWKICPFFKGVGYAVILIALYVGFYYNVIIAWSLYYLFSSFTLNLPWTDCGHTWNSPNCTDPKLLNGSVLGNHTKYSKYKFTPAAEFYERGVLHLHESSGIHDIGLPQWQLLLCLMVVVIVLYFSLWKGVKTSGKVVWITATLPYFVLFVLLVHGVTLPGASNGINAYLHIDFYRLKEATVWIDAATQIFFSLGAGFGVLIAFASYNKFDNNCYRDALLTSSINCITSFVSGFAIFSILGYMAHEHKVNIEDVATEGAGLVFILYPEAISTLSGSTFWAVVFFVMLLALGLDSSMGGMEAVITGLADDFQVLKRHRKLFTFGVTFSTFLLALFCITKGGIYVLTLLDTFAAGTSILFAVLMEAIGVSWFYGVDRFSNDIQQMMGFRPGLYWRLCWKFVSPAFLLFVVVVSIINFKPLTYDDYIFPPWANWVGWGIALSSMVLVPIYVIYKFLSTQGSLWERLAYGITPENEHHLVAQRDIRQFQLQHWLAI
5-hydroxytryptamine receptor 1B, sequence (P28222 whole entry): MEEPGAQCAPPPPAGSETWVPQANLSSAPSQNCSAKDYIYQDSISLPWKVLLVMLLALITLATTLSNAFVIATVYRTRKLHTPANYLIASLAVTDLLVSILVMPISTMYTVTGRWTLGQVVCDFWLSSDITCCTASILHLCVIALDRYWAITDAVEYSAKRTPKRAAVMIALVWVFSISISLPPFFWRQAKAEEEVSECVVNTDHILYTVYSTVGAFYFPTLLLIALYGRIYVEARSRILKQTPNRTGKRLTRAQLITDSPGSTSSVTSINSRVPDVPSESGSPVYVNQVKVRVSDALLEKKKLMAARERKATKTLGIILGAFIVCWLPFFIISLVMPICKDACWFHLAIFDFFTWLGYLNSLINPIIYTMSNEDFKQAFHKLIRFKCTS
Sodium-dependent dopamine transporter (Homo sapiens), sequence (Q01959 whole entry): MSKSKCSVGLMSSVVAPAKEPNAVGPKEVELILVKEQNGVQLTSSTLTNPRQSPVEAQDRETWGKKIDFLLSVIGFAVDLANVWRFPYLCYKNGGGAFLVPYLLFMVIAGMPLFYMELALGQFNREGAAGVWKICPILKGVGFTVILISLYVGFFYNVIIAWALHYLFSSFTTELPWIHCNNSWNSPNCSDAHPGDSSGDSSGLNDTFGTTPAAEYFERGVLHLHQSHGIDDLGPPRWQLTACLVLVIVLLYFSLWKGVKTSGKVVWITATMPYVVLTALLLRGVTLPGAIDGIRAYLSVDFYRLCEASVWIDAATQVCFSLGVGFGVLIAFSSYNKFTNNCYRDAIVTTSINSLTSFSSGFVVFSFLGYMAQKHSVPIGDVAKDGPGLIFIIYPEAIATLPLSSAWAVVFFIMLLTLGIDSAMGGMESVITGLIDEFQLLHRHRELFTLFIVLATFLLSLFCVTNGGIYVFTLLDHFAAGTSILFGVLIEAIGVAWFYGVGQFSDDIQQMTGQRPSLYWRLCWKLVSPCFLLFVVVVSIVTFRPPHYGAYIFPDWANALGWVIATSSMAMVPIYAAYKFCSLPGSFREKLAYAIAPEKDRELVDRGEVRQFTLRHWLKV
T3 sequence (P28223 whole entry): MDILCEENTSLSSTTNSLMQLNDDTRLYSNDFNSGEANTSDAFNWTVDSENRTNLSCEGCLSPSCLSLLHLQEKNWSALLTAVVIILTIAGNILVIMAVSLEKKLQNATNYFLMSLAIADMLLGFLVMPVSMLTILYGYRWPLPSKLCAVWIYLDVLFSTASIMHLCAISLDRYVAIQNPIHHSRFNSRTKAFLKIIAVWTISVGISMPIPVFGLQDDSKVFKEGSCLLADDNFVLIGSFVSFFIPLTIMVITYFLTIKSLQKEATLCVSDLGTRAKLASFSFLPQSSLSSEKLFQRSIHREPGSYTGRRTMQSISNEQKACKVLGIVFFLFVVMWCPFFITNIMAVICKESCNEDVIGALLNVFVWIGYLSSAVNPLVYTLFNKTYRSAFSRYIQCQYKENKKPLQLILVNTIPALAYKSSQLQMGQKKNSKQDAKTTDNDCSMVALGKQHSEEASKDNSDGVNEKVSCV
Kappa-type opioid receptor (Homo sapiens), sequence (P41145 whole entry): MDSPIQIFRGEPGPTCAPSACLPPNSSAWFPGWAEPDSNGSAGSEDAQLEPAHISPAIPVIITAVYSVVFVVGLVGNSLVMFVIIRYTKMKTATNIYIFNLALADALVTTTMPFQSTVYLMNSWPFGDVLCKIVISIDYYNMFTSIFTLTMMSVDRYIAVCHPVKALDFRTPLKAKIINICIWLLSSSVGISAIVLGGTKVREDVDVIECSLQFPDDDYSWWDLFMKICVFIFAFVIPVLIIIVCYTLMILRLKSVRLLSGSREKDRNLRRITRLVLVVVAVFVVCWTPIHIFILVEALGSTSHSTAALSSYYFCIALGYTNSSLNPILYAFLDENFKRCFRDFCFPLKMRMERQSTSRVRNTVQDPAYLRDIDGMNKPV
Mu-type opioid receptor (Homo sapiens), sequence (P35372 whole entry): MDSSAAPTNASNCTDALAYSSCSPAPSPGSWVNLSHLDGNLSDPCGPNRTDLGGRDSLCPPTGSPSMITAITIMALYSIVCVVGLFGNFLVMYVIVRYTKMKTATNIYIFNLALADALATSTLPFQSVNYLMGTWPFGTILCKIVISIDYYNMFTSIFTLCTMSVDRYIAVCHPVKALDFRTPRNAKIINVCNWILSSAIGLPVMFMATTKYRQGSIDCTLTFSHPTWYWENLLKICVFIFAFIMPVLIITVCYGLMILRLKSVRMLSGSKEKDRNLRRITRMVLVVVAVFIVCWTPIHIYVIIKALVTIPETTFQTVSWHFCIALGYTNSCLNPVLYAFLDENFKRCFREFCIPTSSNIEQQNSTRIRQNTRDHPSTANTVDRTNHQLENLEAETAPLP
T2 sequence (P41595 whole entry): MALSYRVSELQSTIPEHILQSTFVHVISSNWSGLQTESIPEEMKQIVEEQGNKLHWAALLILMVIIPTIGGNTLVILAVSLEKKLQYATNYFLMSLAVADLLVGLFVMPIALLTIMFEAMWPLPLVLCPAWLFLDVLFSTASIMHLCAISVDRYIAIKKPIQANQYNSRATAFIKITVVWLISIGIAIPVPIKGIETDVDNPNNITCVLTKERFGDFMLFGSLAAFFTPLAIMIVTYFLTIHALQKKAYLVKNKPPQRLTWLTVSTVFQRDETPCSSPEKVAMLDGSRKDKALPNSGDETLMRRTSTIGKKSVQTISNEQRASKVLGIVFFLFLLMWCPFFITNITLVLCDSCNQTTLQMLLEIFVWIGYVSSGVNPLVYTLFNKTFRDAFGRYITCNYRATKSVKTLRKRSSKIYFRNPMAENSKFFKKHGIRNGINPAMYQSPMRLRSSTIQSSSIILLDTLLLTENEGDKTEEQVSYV
Histamine H1 receptor (Homo sapiens), sequence (P35367 whole entry): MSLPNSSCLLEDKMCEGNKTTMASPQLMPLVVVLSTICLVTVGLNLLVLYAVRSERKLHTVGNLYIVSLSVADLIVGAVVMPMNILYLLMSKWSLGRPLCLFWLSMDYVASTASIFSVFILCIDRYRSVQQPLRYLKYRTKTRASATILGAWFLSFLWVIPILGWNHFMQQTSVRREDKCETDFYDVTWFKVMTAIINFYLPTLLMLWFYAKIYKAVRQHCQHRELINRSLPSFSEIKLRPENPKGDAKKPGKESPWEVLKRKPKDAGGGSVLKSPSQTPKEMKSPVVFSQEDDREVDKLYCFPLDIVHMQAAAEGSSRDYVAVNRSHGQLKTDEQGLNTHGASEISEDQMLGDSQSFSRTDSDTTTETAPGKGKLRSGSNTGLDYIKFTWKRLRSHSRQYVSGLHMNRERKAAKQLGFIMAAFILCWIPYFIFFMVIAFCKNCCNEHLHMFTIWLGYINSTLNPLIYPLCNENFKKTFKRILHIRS
Delta-type opioid receptor (Homo sapiens), sequence (P41143 whole entry): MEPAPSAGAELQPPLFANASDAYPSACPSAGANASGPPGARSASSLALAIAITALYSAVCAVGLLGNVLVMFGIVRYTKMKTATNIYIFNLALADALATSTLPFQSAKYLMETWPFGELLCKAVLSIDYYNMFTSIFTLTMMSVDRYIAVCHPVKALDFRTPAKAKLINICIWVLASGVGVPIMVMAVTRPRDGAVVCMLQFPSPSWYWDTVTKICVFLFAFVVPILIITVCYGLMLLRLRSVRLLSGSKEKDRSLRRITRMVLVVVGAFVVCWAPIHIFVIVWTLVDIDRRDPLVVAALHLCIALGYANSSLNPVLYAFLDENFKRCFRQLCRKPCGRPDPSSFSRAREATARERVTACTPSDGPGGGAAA

Ki [1]	inhibition [2]	inhibition [3]	inhibition [4]	Emax [5]	inhibition [6]	Ki [7]	inhibition [8]	EC50 [9]	inhibition [10]	EC50 ([11]; read-out: EC50)	inhibition [12]	Ki [13]	inhibition [14]	Ki [15]	inhibition [16]	inhibition [17]	inhibition [18]	inhibition [19]	Ki [20]	Compound	further results
22.4 nM	< 50%	< 50%	< 50%	96.7%	< 50%	2.93 nM	< 50%	1.7 nM	< 50%	0.58 nM	< 50%	113 nM	< 50%	52.1 nM	< 50%	< 50%	< 50%	< 50%	–	COc1cc(OC)c(C2NCCc3c2[nH]c2ccc(Cl)cc32)cc1OC (stereo unspecified)	–
79.9 nM	< 50%	< 50%	< 50%	99.4%	< 50%	4.53 nM	< 50%	8.3 nM	–	3.1 nM	< 50%	225 nM	< 50%	164 nM	< 50%	< 50%	< 50%	< 50%	609 nM	COc1ccc(C2NCCc3c2[nH]c2ccc(Cl)cc32)c(O)c1 (stereo unspecified)	–
94.4 nM	< 50%	< 50%	< 50%	102%	< 50%	4.42 nM	< 50%	3.2 nM	–	1.3 nM	< 50%	250 nM	< 50%	70.8 nM	< 50%	< 50%	< 50%	< 50%	362 nM	COc1ccc(C2NCCc3c2[nH]c2ccc(F)cc32)c(O)c1 (stereo unspecified)	–
1370 nM	< 50%	< 50%	< 50%	106%	< 50%	55.7 nM	< 50%	39 nM	< 50%	10 nM	< 50%	2440 nM	< 50%	–	< 50%	< 50%	< 50%	< 50%	–	COc1cc(OC)c(C2NCCc3c2[nH]c2ccc(F)cc32)cc1OC (stereo unspecified)	EC50 ([11]; read-out: pEC50 (converted)): 11 nM
